The text below walks through data of patent EP0896965A1, “Inhibitors of G-protein-beta, gamma subumit function” (BOEHRINGER MANNHEIM GMBH, priority 1997, dated 1999).

Experiment [1] concerns β-adrenergic receptor kinase. Kind of experiment: Inhibition of rhodopsin phosphorylation by β-adrenergic receptor kinase in the presence of Gβγ. The conditions noted are these: peptide at 100 µM; 1 µM rhodopsin, 2.5 nM βARK-1, 20 nM Gβγ. Format: biochemical. As to the method:
(§1) • Figure 1 Inhibition of GTPase activity of Go by His6-tagged phosducin and its N-terminally truncated variants. […] The size of the short form of PhLP is indicated by the line on the top. Analysis with nonlinear curve fitting gave the following IC50-values: phosducin 15±1 nM, phosducin(64-246) 33±3 nM, phosducin( 138-246) 25±2 nM, phosducin(172-246) 95±13 nM, phosducin(204-246) 240±20 nM. Data are mean ± SEM of 3 independent experiments • Figure 2 Direct binding of His6-tagged phosducin and phosducin(204-246) to Gβγ. […] After washing, the Gβγ retained in the pellet was detected by SDS-polyacrylamide gel electrophoresis and Western blotting with antibodies directed against Gβ. • Figure 3 Inhibition of G0GTPase activity by synthetic peptides (top) derived from the C-terminus of phosducin. […] The activity of βARK was determined using rhodopsin in rod outer segments the substrate as in Schroeder and Lohse 1996. […] Phospholipase C-β2 activity was determined with a truncated version of PLC-β2 (PLC-mut) as described by Dietrich et al. (1994). […] Activity is expressed as pmoles of inositol 1.4.5-triphosphate formed per minute. • Figure 5 Amide region of a 500 MHz WATERGATED NOESY spectrum of the peptide phosducin(204-231) in 10 mM Phosphate buffer containing 100 mM NaCI and 10% D2O at pH = 6.5 and 277 K. The mixing time used was 250 ms. […]

For another experiment, the system named is phospholipase C-β2. Kind of experiment: Inhibition of Gβγ-stimulated phospholipase C-β2 activity. In kind it is biochemical. The conditions noted are these: peptide at 100 µM; Gβγ 600 nM. As to the method: as §1

No end group written: not given here.

GDVESFLNEYGLLPEKEM [phosducin(215-232)]: the “antagonism of the stimulatory effects of Gβγ on the activity of the β-adrenergic receptor kinase” value in experiment [1] is reported as “antagonized”. Also, the “antagonism of the stimulatory effects of Gβγ on the activity of phospholipase Cβ2” value with phospholipase C-β2 is on record as “antagonized”.
